Laboratory results as given in US20220370440A1 (Lead Discovery Center GmbH, priority 2018, published 2022).

Tests used:
[1] = target: EGFR Exon 20 INSNPH Ba/F3 (Homo sapiens, UniProt P00533, DUP771-773, cells depend on it); test: EGFR Exon 20 INSNPH Ba/F3 CellTiter-Glo; assay type: cell-based; details: CellTiter-Glo, 72 h, read-out: EGFR Exon 20 INSNPH Ba/F3 CTG IC50
In short: (§1)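 Ba/F3 cells dependent on the mutant kinase, seeded and grown 24 h, then treated with compound for 72 h at 37 °C, 5% CO2. Viability by CellTiter-Glo ATP luminescence versus DMSO and 10 μM staurosporine controls; IC50 from dose-response fit, plates accepted at Z′ ≥0.5; bins A ≤100 nM to E >10000 nM.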

EGFR T790ML858R = EGFR T790ML858R (Homo sapiens, UniProt P00533, L858R/T790M); test: EGFR T790ML858R Lance assay; assay type: biochemical
Description: (§2) Inhibition is indicated as […] [nM] (“−”=not measured). Compounds having an activity designated as “A” provided an IC50≤100 nM; compounds having an activity designated as “B” provided an 100 nM<IC50≤500 nM; compounds having an activity designated as “C” provided an 500 nM<IC50≤1000 nM; compounds having an activity designated as “D” provided an 1000 nM<IC50≤100000 nM; and compounds having an activity designated as “E” provided an IC50>10000 nM.

EGFR wt = EGFR wt (Homo sapiens, UniProt P00533); test: EGFR wt Lance assay; assay type: biochemical
Description: as §2

[2] = Metabolic stability in mouse liver microsomes without cofactor NADPH; assay type: in vitro ADME; details: for Stability in presence of mouse liver microsomes without cofactor NADPH [% remaining after 50 min]: 3 μM test compound, 37° C., LC-MS/MS
Description: There are two major groups of enzyme reactions catalyzed by drug metabolizing enzymes, the so called Phase I and Phase II reactions. The basic processes in phase I reactions are oxidation, reduction and/or hydrolysis mostly catalyzed by the cytochrome P450 (CYP) family of enzymes.
The following procedures describe the determination of the in vitro Phase I metabolic stability of test compounds using liver microsomes by measuring compound depletion over time. Test compound at the concentration of 3 μM was incubated with the liver microsomes from the mouse species and the experiment was performed without NADPH. The depletion of the test compounds was measured over time up to 50 minutes at 37° C. by LC-MS/MS. Different compounds were tested under these conditions for microsomal stability (see Table 5).

H1975 = H1975 CellTiter-Glo; assay type: cell-based; details: Homo sapiens, NCI-H1975; 72 h compound incubation; read-out: H1975 CTG IC50
In short: (§3)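 Antiproliferative IC50 values come from a 72 h treatment of cultured cells, measured by CellTiter-Glo ATP luminescence. Only runs with a Z′-factor of at least 0.5, calculated from 16 vehicle and 16 Staurosporine (10 μM) control wells, are reported.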

[3] = target: Her2 Exon 20 INSYVMA Ba/F3 (Homo sapiens, UniProt P04626, DUP772-775, cells depend on it); test: Her2 Exon 20 INSYVMA Ba/F3 CellTiter-Glo; assay type: cell-based; details: CellTiter-Glo, 72 h, read-out: Her2 Exon 20 INSYVMA Ba/F3 CTG IC50
In short: as §1

HER2 INS YVMA = target: T1, HER2 INS YVMA (Homo sapiens, UniProt P04626, INS775YVMA); test: Lance Kinase Activity Assay, HER2 INS YVMA (Her2 Exon 20 INSYVMA Lance); assay type: biochemical; details: biochemical Lance assay
T1 construct: purchased DPF
In short: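 Kinase phosphorylates a ULight-labelled peptide substrate; Eu anti-phospho antibody gives TR-FRET (ex 340 nm, em 665/615 nm). Compounds in 1:3 serial dilution over 8 steps, reaction started with ATP, 1 h at room temperature, stopped with EDTA-containing detection mix for 1 h. IC50 from sigmoidal dose-response curves.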

A431 = A431 CellTiter-Glo; assay type: cell-based; details: Homo sapiens, A-431; 72 h compound incubation; read-out: A431 CTG IC50
In short: as §3

EGFR T790ML858R, sequence (P00533 25-1210 T790M/L858R): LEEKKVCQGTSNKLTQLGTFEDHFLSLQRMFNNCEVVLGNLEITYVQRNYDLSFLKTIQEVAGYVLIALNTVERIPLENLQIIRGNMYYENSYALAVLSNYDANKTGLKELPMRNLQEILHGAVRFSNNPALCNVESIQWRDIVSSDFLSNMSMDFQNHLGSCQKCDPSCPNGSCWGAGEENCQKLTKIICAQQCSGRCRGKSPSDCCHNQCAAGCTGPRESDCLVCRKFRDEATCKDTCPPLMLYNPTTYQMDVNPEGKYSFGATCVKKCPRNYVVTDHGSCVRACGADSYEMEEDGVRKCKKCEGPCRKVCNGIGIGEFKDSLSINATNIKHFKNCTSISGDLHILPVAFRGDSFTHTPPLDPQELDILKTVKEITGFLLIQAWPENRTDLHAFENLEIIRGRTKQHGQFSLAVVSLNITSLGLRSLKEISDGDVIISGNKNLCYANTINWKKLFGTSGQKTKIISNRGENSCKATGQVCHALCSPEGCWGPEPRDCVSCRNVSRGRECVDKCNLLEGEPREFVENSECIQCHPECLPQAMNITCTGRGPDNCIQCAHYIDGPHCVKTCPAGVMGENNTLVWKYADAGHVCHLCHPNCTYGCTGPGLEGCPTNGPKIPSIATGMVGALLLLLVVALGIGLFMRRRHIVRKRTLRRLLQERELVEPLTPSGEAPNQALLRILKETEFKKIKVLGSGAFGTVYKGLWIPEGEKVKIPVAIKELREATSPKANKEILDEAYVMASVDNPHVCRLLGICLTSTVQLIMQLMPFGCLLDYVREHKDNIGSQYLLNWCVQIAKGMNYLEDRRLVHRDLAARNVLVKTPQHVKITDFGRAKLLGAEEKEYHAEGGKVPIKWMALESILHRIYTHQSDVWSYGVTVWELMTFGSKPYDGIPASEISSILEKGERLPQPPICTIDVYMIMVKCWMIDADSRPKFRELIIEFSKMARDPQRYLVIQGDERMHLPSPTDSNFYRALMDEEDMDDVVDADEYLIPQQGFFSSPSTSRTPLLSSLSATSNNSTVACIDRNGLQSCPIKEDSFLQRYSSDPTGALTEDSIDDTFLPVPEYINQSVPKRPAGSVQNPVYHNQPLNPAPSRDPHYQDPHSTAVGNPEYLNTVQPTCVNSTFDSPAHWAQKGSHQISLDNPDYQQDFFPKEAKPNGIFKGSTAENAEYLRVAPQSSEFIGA
Her2 Exon 20 INSYVMA Ba/F3, sequence (P04626 with tags, fused parts or gaps DUP772-775): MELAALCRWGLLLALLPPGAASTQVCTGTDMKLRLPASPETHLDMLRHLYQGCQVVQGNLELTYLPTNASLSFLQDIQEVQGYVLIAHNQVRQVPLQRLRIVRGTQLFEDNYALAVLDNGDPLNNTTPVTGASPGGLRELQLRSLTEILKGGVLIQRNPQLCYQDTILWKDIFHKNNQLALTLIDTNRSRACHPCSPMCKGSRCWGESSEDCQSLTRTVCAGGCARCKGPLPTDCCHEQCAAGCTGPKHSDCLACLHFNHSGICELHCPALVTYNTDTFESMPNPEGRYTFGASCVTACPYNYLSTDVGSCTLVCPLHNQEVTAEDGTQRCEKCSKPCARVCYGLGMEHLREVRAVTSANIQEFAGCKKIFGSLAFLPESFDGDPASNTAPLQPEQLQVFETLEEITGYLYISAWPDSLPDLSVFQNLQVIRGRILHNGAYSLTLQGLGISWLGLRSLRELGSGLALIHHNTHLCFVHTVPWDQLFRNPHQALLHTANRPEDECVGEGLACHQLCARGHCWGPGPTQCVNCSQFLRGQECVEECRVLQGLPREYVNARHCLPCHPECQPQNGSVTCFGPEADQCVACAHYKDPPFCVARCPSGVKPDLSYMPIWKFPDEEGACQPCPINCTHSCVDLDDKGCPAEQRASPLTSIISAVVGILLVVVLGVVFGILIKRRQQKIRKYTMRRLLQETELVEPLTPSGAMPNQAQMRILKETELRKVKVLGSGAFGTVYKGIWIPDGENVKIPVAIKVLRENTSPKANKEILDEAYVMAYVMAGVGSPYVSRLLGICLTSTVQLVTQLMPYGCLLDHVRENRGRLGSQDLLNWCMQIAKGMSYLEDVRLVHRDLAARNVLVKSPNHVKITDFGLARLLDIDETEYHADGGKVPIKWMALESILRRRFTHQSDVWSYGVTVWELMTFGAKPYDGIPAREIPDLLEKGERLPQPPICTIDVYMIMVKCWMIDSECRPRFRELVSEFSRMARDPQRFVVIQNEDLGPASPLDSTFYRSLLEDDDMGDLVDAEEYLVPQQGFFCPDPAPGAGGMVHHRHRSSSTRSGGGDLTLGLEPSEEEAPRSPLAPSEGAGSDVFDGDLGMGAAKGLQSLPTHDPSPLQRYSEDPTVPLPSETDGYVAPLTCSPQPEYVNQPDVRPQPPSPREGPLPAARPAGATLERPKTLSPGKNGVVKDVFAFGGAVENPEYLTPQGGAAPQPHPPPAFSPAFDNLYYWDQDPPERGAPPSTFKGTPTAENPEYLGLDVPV
EGFR wt, sequence (P00533 25-1210): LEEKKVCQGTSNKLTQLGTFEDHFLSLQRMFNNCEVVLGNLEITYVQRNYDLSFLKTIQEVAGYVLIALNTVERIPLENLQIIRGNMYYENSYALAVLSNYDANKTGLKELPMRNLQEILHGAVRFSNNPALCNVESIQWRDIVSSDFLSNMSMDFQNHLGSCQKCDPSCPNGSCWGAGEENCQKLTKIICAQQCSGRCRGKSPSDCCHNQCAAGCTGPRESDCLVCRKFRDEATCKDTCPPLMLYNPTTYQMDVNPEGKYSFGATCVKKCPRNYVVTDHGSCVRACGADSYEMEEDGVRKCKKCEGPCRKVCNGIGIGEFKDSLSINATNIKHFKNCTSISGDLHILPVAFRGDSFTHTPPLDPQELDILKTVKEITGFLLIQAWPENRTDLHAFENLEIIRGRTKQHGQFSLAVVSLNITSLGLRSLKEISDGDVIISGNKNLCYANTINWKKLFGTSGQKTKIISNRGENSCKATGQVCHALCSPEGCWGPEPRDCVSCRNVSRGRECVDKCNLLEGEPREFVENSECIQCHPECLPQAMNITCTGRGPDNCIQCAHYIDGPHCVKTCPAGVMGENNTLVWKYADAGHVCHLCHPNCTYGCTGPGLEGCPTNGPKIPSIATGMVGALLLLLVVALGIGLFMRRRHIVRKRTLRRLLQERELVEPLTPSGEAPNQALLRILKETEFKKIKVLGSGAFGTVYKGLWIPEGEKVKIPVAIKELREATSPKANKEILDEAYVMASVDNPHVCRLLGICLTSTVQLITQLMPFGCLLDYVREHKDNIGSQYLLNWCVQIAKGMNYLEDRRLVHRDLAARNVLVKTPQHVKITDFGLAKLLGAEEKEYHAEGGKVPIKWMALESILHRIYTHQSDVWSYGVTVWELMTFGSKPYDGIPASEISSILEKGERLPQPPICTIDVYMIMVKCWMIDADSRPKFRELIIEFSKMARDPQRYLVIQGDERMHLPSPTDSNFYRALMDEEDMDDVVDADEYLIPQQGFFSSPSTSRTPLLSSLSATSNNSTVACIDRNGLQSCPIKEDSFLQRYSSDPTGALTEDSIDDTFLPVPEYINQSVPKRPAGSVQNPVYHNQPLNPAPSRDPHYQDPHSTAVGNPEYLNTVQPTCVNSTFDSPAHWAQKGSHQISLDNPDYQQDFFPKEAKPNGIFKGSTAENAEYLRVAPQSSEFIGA
T1 sequence (P04626 with tags, fused parts or gaps INS775YVMA): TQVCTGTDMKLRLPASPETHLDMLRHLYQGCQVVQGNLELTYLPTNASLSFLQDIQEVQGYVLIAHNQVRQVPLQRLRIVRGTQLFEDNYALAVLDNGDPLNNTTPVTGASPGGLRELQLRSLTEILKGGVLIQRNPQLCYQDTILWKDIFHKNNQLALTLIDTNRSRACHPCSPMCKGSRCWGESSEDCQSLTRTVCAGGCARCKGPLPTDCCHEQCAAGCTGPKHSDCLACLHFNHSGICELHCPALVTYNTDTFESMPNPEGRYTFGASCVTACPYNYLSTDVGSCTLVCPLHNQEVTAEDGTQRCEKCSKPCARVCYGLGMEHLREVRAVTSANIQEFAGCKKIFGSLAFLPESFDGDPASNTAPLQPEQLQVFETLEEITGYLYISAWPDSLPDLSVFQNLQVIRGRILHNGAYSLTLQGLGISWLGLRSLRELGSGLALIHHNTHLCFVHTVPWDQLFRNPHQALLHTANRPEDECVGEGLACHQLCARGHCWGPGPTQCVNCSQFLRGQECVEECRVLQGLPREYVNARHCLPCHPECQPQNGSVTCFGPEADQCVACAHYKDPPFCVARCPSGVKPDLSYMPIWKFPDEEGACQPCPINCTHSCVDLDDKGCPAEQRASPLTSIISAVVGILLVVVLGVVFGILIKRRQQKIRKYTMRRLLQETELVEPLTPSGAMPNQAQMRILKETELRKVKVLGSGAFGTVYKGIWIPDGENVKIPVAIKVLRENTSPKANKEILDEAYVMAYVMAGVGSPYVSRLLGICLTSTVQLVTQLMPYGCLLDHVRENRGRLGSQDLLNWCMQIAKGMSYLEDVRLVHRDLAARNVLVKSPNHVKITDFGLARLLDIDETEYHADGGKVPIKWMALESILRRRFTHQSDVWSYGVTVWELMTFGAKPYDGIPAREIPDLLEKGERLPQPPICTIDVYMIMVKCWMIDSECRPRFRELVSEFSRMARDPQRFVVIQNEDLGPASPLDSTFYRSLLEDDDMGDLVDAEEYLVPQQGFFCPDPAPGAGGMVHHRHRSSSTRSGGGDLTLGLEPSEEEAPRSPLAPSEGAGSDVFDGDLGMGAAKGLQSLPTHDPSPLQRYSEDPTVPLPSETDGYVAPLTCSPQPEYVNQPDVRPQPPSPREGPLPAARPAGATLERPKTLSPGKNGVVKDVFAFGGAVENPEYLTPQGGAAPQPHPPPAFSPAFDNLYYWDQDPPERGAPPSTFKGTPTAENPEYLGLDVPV

Row | SMILES | GI50 [1] [nM] | IC50 (EGFR T790ML858R) [nM] | IC50 (EGFR wt) [nM] | Stability in presence of mouse liver microsomes without cofactor NADPH [% remaining after 50 min] [2] [% remaining after 50 min] | IC50 (H1975) [nM] | GI50 [3] [nM] | IC50 (HER2 INS YVMA) [nM] | major metabolite observed ([2]; mouse liver microsomes with and without the cofactor NADPH) | IC50 (A431) [nM]
1 | C=CC(=O)Nc1cc(-c2c(-c3cccc(CN4CCOCC4)c3)[nH]c3nccc(Cl)c23)ccc1C [Example 7, N-(5-(4-chloro-2-(3-(morpholinomethyl)phenyl)-1H-pyrrolo[2,3-b]pyridin-3-yl)-2-methylphenyl)acrylamide] | 1000 to 10000 | ≤ 100 | 100 to 500 | >99 | 100 to 500 | 500 to 1000 | 500 to 1000 | – | –
2 | C=CC(=O)Nc1cc(-c2c(-c3ccc(C(=O)N4CCN(C)CC4)cc3)[nH]c3nccc(Cl)c23)ccc1C [Example 9, N-(5-(4-chloro-2-(4-(4-methylpiperazine-1-carbonyl)phenyl)-1H-pyrrolo[2,3-b]pyridin-3-yl)-2-methylphenyl)acrylamide] | 100 to 500 | ≤ 100 | ≤ 100 | >99 | ≤ 100 | 100 to 500 | ≤ 100 | – | –
3 | C=CC(=O)Nc1cc(-c2c(-c3ccc(N4CCN(C)CC4)cc3)[nH]c3ncc(C(=O)OC(C)C)cc23)ccc1C [Example 117, isopropyl 3-(3-acrylamido-4-methylphenyl)-2-(4-(4-methylpiperazin-1-yl)phenyl)-1H-pyrrolo[2,3-b]pyridine-5-carboxylate 2,2,2-trifluoroacetate] | – | – | – | 100 | – | – | – | – | –
4 | C=CC(=O)Nc1cc(-c2c(-c3ccc(N4CCN(C)CC4)cc3OC)[nH]c3nccc(Cl)c23)ccc1C [Example 21, N-(5-(4-chloro-2-(2-methoxy-4-(4-methylpiperazin-1-yl)phenyl)-1H-pyrrolo[2,3-b]pyridin-3-yl)-2-methylphenyl)acrylamide] | 500 to 1000 | ≤ 100 | ≤ 100 | 93 | ≤ 100 | 500 to 1000 | 100 to 500 | – | –
5 | C=CC(=O)Nc1cc(-c2c(-c3cccc(C(=O)N4CCOCC4)c3)[nH]c3nccc(Cl)c23)ccc1C [Example 27, N-(5-(4-chloro-2-(3-(morpholine-4-carbonyl)phenyl)-1H-pyrrolo[2,3-b]pyridin-3-yl)-2-methylphenyl)acrylamide] | 1000 to 10000 | ≤ 100 | 100 to 500 | >99 | 100 to 500 | 1000 to 10000 | 500 to 1000 | – | –
6 | C=CC(=O)Nc1cc(-c2c(-c3ccnc(N4CCOCC4)c3)[nH]c3nccc(Cl)c23)ccc1C [Example 32, N-(5-(4-chloro-2-(2-morpholinopyridin-4-yl)-1H-pyrrolo[2,3-b]pyridin-3-yl)-2-methylphenyl)acrylamide] | 500 to 1000 | ≤ 100 | ≤ 100 | >99 | ≤ 100 | 500 to 1000 | 100 to 500 | – | –
7 | C=CC(=O)Nc1cccc(-c2c(-c3ccc(C4CCN(C)CC4)cc3)[nH]c3ncccc23)c1 [Reference 1, reference compound] | – | – | – | 33 | – | – | – | hydrolysis of the acrylamide moiety | –
8 | C=CC(=O)Nc1cc(OC)cc(-c2c(-c3ccc(N4CCN(C)CC4)cc3)[nH]c3ncccc23)c1 [Reference 2, reference compound] | – | – | – | 48 | – | – | – | – | –
9 | C=CC(=O)Nc1cc(-c2c(-c3cccc(OCCCN(C)C)c3)[nH]c3nccc(Cl)c23)ccc1C [Example 20, N-(5-(4-chloro-2-(3-(3-(dimethylamino)propoxy)phenyl)-1H-pyrrolo[2,3-b]pyridin-3-yl)-2-methylphenyl)acrylamide] | 500 to 1000 | ≤ 100 | ≤ 100 | >99 | ≤ 100 | 500 to 1000 | ≤ 100 | – | –
10 | C=CC(=O)Nc1cc(-c2c(-c3ccc(N4CCN(C)CC4)cc3)[nH]c3ncc(CC(=O)O)cc23)ccc1C [Example 189, 2-(3-(3-acrylamido-4-methylphenyl)-2-(4-(4-methylpiperazin-1-yl)phenyl)-1H-pyrrolo[2,3-b]pyridin-5-yl)acetic acid 2,2,2-trifluoroacetate] | > 10000 | ≤ 100 | ≤ 100 | – | > 10000 | > 10000 | ≤ 100 | – | > 10000
11 | C=CC(=O)Nc1cc(-c2c(-c3ccc(N4CCN(C)CC4)cc3)[nH]c3ncc(CC(=O)OC4COC4)cc23)ccc1C [Example 197, oxetan-3-yl 2-(3-(3-acrylamido-4-methylphenyl)-2-(4-(4-methylpiperazin-1-yl)phenyl)-1H-pyrrolo[2,3-b]pyridin-5-yl)acetate] | 100 to 500 | ≤ 100 | ≤ 100 | – | 500 to 1000 | 1000 to 10000 | ≤ 100 | – | 1000 to 100000
12 | C=CC(=O)Nc1cc(-c2c(-c3ccc(N4CCN(C)CC4)cc3)[nH]c3ncc(C(=O)NCc4cccc(S(N)(=O)=O)c4)cc23)ccc1C [Example 126, 3-(3-acrylamido-4-methylphenyl)-2-(4-(4-methylpiperazin-1-yl)phenyl)-N-(3-sulfamoylbenzyl)-1H-pyrrolo[2,3-b]pyridine-5-carboxamide] | > 10000 | ≤ 100 | ≤ 100 | – | > 10000 | > 10000 | 100 to 500 | – | > 10000
13 | C=CC(=O)Nc1cc(-c2c(-c3ccc(N4CCN(C)CC4)cc3)[nH]c3ncc(C(=O)OC4CCCC4)cc23)ccc1C [Example 139, cyclopentyl 3-(3-acrylamido-4-methylphenyl)-2-(4-(4-methylpiperazin-1-yl)phenyl)-1H-pyrrolo[2,3-b]pyridine-5-carboxylate] | 500 to 1000 | ≤ 100 | ≤ 100 | – | 100 to 500 | 500 to 1000 | 100 to 500 | – | 1000 to 100000
14 | C/C=C/C(=O)Nc1cc(-c2c(-c3ccc(N4CCN(C)CC4)cc3)[nH]c3nccc(Cl)c23)ccc1C [Example 142, (E)-N-(5-(4-chloro-2-(4-(4-methylpiperazin-1-yl)phenyl)-1H-pyrrolo[2,3-b]pyridin-3-yl)-2-methylphenyl)but-2-enamide 2,2,2-trifluoroacetate] | 1000 to 10000 | ≤ 100 | ≤ 100 | – | 100 to 500 | 1000 to 10000 | 500 to 1000 | – | 1000 to 100000
15 | C=CC(=O)Nc1cc(-c2c(-c3ccc(N4CCN(S(=O)(=O)CC)CC4)cc3)[nH]c3ncc(C(=O)OC(C)C)cc23)ccc1C [Example 184, isopropyl 3-(3-acrylamido-4-methylphenyl)-2-(4-(4-(ethylsulfonyl)piperazin-1-yl)phenyl)-1H-pyrrolo[2,3-b]pyridine-5-carboxylate] | 1000 to 10000 | 100 to 500 | ≤ 100 | – | 1000 to 100000 | 1000 to 10000 | 500 to 1000 | – | > 10000
16 | C=CC(=O)N1CCOc2ccc(-c3c(-c4ccc(OCCN5CCCC5)cc4)[nH]c4nccc(Cl)c34)cc21 [Example 101, 1-(6-(4-chloro-2-(4-(2-(pyrrolidin-1-yl)ethoxy)phenyl)-1H-pyrrolo[2,3-b]pyridin-3-yl)-2H-benzo[b][1,4]oxazin-4(3H)-yl)prop-2-en-1-one] | 100 to 500 | ≤ 100 | ≤ 100 | – | 100 to 500 | 100 to 500 | ≤ 100 | – | 1000 to 100000
